Measured values: ChEMBL document CHEMBL2203180, “Novel nitric oxide-releasing isochroman-4-one derivatives: Synthesis and evaluation of antihypertensive activity” (Bioorg Med Chem, 2012)
The source made the active and inactive calls. No cut-off for these calls is given here.

Key:
Rattus norvegicus [1] = experiment: Antihypertensive activity in spontaneously hypertensive rat assessed as reduction of mean artery pressure at 80 mg/kg, po up to 24 hrs; assay type: functional, organism-based; set-up: dose 80 mg/kg
Rattus norvegicus [2] = experiment: Antihypertensive activity in spontaneously hypertensive rat assessed as reduction of diastolic arterial pressure at 80 mg/kg, po after 6 to 12 hrs; assay type: functional, Artery; set-up: scale not given: the % may be the effect or the level left
[3] = Induction of nitric oxide release in 0.1 mM phosphate buffer solution at pH 7.4 assessed as nitrate/nitrite level after 80 mins by Griess assay; assay type: physicochemical; conditions: pH 7.4, 80 min
[4] = Induction of nitric oxide release in 0.1 mM phosphate buffer solution at pH 7.4 assessed as nitrate/nitrite level after 100 mins by Griess assay; assay type: physicochemical; conditions: pH 7.4, 100 min
[5] = Induction of nitric oxide release in 0.1 mM phosphate buffer solution at pH 7.4 assessed as nitrate/nitrite level after 120 mins by Griess assay; assay type: physicochemical; conditions: pH 7.4, 2 h
[6] = Induction of nitric oxide release in 0.1 mM phosphate buffer solution at pH 7.4 assessed as nitrate/nitrite level after 30 mins by Griess assay; assay type: physicochemical; conditions: pH 7.4, 0.5 h
[7] = Induction of nitric oxide release in 0.1 mM phosphate buffer solution at pH 7.4 assessed as nitrate/nitrite level after 150 mins by Griess assay; assay type: physicochemical; conditions: pH 7.4, 2.5 h
[8] = Induction of nitric oxide release in 0.1 mM phosphate buffer solution at pH 7.4 assessed as nitrate/nitrite level after 10 mins by Griess assay; assay type: physicochemical; conditions: pH 7.4, 10 min
Rattus norvegicus [9] = experiment: Antihypertensive activity in spontaneously hypertensive rat assessed as reduction of diastolic arterial pressure at 40 mg/kg, po up to 24 hrs; assay type: functional, organism-based; set-up: dose 40 mg/kg; conditions: Artery
Rattus norvegicus [10] = experiment: Antihypertensive activity in spontaneously hypertensive rat assessed as reduction of blood pressure at 80 mg/kg, po up to 24 hrs; assay type: functional; set-up: scale not given: the % may be the effect or the level left
[11] = Induction of nitric oxide release in 0.1 mM phosphate buffer solution at pH 7.4 assessed as nitrate/nitrite level after 60 mins by Griess assay; assay type: physicochemical; conditions: pH 7.4, 1 h
Rattus norvegicus [12] = experiment: Toxicity in spontaneously hypertensive rat assessed as change in heart rate at 80 mg/kg, po up to 24 hrs; assay type: organism-based; set-up: dose 80 mg/kg, route oral; conditions: in vivo
[13] = Induction of nitric oxide release in 0.1 mM phosphate buffer solution at pH 7.4 assessed as nitrate/nitrite level after 10 to 150 mins by Griess assay; assay type: physicochemical
Rattus norvegicus [14] = experiment: Antihypertensive activity in spontaneously hypertensive rat assessed as reduction of diastolic arterial pressure at 40 mg/kg, po after 6 to 12 hrs; assay type: functional, Artery; set-up: scale not given: the % may be the effect or the level left

| Activity [3] | Activity [4] | Activity [5] | Activity [6] | Activity [7] | Activity [8] | Activity [11] | Activity [13] | Structure (SMILES) | Activity (Rattus norvegicus [1]) | Activity (Rattus norvegicus [2]) | Activity (Rattus norvegicus [9]) | Activity (Rattus norvegicus [10]) | Activity (Rattus norvegicus [12]) | Activity (Rattus norvegicus [14]) |
| --- | --- | --- | --- | --- | --- | --- | --- | --- | --- | --- | --- | --- | --- | --- |
| 14.7 µmol/L | 14.61 µmol/L | 17.61 µmol/L | 10.41 µmol/L | 20.62 µmol/L | 10.37 µmol/L | 11.91 µmol/L |  | COc1cc2c(cc1OCC(=O)OCCCO[N+](=O)[O-])COC(C)C2=O (centres undefined) | Active | >30% | Active | 40% | Non-toxic |  |
| 18.3 µmol/L | 18.81 µmol/L | 18.95 µmol/L | 17.87 µmol/L | 28.58 µmol/L | 17.45 µmol/L | 18.12 µmol/L |  | COc1cc2c(cc1OCCCO[N+](=O)[O-])COC(C)C2=O (centres undefined) | Active | >30% | Active | 40% | Non-toxic |  |
|  |  |  |  |  |  |  | Not Active | COc1cc2c(cc1O)COC(C)C2=O (centres undefined) |  |  |  |  |  |  |
| 13.12 µmol/L | 13.35 µmol/L | 13.27 µmol/L | 10.84 µmol/L | 16.68 µmol/L | 10.62 µmol/L | 13 µmol/L |  | COc1ccc2c(c1OCC(=O)OCCO[N+](=O)[O-])COC(C)C2=O (centres undefined) |  |  | Active |  |  |  |
|  |  |  |  |  |  |  | Not Active | COc1cc2c(cc1O)C(=O)C(C)OC2 (centres undefined) |  |  |  |  |  |  |
| 3.84 µmol/L | 4.03 µmol/L | 4.01 µmol/L | 2.46 µmol/L | 4.02 µmol/L | 2.19 µmol/L | 3.02 µmol/L |  | COc1ccc2c(c1OCCCCO[N+](=O)[O-])COC(C)C2=O (centres undefined) |  |  |  |  |  |  |
| 8.69 µmol/L | 8.9 µmol/L | 9.02 µmol/L | 6.01 µmol/L | 10.81 µmol/L | 5.73 µmol/L | 7.13 µmol/L |  | COc1cc2c(cc1OCC(=O)OCCCCO[N+](=O)[O-])C(=O)C(C)OC2 (centres undefined) |  |  |  |  |  |  |
| 7.85 µmol/L | 8.31 µmol/L | 8.68 µmol/L | 5.17 µmol/L | 12.99 µmol/L | 4.81 µmol/L | 7.72 µmol/L |  | COc1cc2c(cc1OCCCCO[N+](=O)[O-])COC(C)C2=O (centres undefined) |  |  |  |  |  |  |
| 11.28 µmol/L | 12.09 µmol/L | 12.27 µmol/L | 10.25 µmol/L | 14.72 µmol/L | 10.12 µmol/L | 11.24 µmol/L |  | COc1cc2c(cc1OCCO[N+](=O)[O-])COC(C)C2=O (centres undefined) |  |  |  |  |  |  |
| 11.7 µmol/L | 11.67 µmol/L | 11.69 µmol/L | 7.45 µmol/L | 14.92 µmol/L | 7.42 µmol/L | 8.72 µmol/L |  | COc1cc2c(cc1OCC(=O)OCCCCO[N+](=O)[O-])COC(C)C2=O (centres undefined) |  |  |  |  |  |  |
|  |  |  |  |  |  |  |  | C[C@H](CS)C(=O)N1CCC[C@H]1C(=O)O [CAPTOPRIL] |  |  | Active |  |  | >30% |
| 11.11 µmol/L | 11.34 µmol/L | 12.94 µmol/L | 6.94 µmol/L | 16.26 µmol/L | 6.66 µmol/L | 8.64 µmol/L |  | COc1cc2c(cc1OCC(=O)OCCO[N+](=O)[O-])COC(C)C2=O (centres undefined) |  |  |  |  |  |  |
| 6.77 µmol/L | 6.89 µmol/L | 7.01 µmol/L | 5.59 µmol/L | 7.04 µmol/L | 5.14 µmol/L | 6.29 µmol/L |  | COc1cc2c(cc1OCCCO[N+](=O)[O-])C(=O)C(C)OC2 (centres undefined) |  |  |  |  |  |  |
| 7.77 µmol/L | 8.23 µmol/L | 8.6 µmol/L | 5.76 µmol/L | 8.72 µmol/L | 5.65 µmol/L | 6.29 µmol/L |  | COc1cc2c(cc1OCC(=O)OCCCO[N+](=O)[O-])C(=O)C(C)OC2 (centres undefined) |  |  |  |  |  |  |
|  |  |  |  |  |  |  |  | CC1OCc2cc(O)c(O)cc2C1=O (racemic) |  |  | Active |  |  |  |
| 11.95 µmol/L | 12.09 µmol/L | 12.1 µmol/L | 8.81 µmol/L | 13.99 µmol/L | 8.43 µmol/L | 10.07 µmol/L |  | COc1cc2c(cc1OCC(=O)OCCO[N+](=O)[O-])C(=O)C(C)OC2 (centres undefined) |  |  |  |  |  |  |
| 6.27 µmol/L | 6.55 µmol/L | 6.59 µmol/L | 5.08 µmol/L | 8.72 µmol/L | 4.05 µmol/L | 6.04 µmol/L |  | COc1ccc2c(c1OCC(=O)OCCCCO[N+](=O)[O-])COC(C)C2=O (centres undefined) |  |  |  |  |  |  |
| 7.29 µmol/L | 10.5 µmol/L | 14.61 µmol/L | 1.78 µmol/L | 16.26 µmol/L | 1.51 µmol/L | 4.53 µmol/L |  | COc1ccc2c(c1OCCO[N+](=O)[O-])COC(C)C2=O (centres undefined) | Active | >30% | Active | 40% | Non-toxic |  |
|  |  |  |  |  |  |  |  | CC1OCc2c(ccc(O)c2O)C1=O (racemic) |  |  | Active |  |  |  |
| 6.52 µmol/L | 7.56 µmol/L | 8.1 µmol/L | 5.84 µmol/L | 10.06 µmol/L | 5.56 µmol/L | 6.04 µmol/L |  | COc1cc2c(cc1OCCO[N+](=O)[O-])C(=O)C(C)OC2 (centres undefined) |  |  |  |  |  |  |
| 3.84 µmol/L | 3.95 µmol/L | 4.01 µmol/L | 1.19 µmol/L | 4.86 µmol/L | 0.84 µmol/L | 2.27 µmol/L |  | COc1ccc2c(c1OCC(=O)OCCCO[N+](=O)[O-])COC(C)C2=O (centres undefined) |  |  |  |  |  |  |
|  |  |  |  |  |  |  | Not Active | COc1ccc2c(c1O)COC(C)C2=O (centres undefined) |  |  |  |  |  |  |
| 5.93 µmol/L | 6.05 µmol/L | 6.09 µmol/L | 4.83 µmol/L | 7.54 µmol/L | 4.81 µmol/L | 4.87 µmol/L |  | COc1cc2c(cc1OCCCCO[N+](=O)[O-])C(=O)C(C)OC2 (centres undefined) |  |  |  |  |  |  |
| 9.27 µmol/L | 9.4 µmol/L | 9.43 µmol/L | 7.45 µmol/L | 9.47 µmol/L | 7.42 µmol/L | 9.23 µmol/L |  | COc1ccc2c(c1OCCCO[N+](=O)[O-])COC(C)C2=O (centres undefined) |  |  |  |  |  |  |
